# Where two headings read alike, the source gives them in different places.
# Tests used:
# [1] = In vitro bioconversion of pro-drug to parent drug in human blood and plasma; type: in vitro ADME; conditions: for Peak Area of pro-drug: 37° C.; for Conversion to the parent compound (summary in words): human whole blood and plasma
# Description: Compounds #1, #4, #6, #15, and #16, as well as the parent drug [(E)-7-(3-(2-amino-1-fluoroethylidene)piperidin-1-yl)-1-cyclopropyl-6-fluoro-8-methoxy-4-oxo-1,4-dihydroquinoline-3-carboxylic acid] (the compound of formula (M)) were dissolved to 1 mg/mL, and diluted to 20 ng/mL in fresh, chilled (4° C.) human or mouse whole blood or plasma, or kidney and liver extract (prepared from the respective fresh mouse organs as described below). Compound concentrations were normalized to parent drug content by multiplying by a ratio of the relative molecular weights. Time 0 (minute) samples were prepared by immediately diluting with an equal volume of acetonitrile, vortexing, and transferring the samples to ice. For additional time points, samples were placed in an incubator (Tables 4 and 5), or in a heating block (Tables 6-12) at 37° C. for the indicated time, then immediately vortexed with an equal volume of acetonitrile and placed on ice. Samples were centrifuged and further diluted with an equal volume of water to a final concentration of 25% acetonitrile prior to analysis by HPLC; diluted samples were retained in the cooled (4° C.) HPLC sample injection chamber pending injection.
# Representative compounds of the present invention and the parent compound were analyzed by reversed-phase HPLC using an Agilent 1100 system. Samples were injected onto a Zorbax SB-C18 column (3.5 μM, 4.6×150 mm) with a guard cartridge, and developed on a gradient of 15% aqueous acetonitrile in 0.1% trifluoroacetic acid to 85% aqueous acetonitrile in 0.1% trifluoroacetic acid over 10 minutes. The solvent flow rate was 1 mL/min, and the column temperature was 40° C. Compound and parent peak identification was by diode array detection, monitored at 300 nm Conversion of the compounds (prodrugs) to parent drug was estimated by peak areas (A300 nm, mAU) of the respective agents.
# For studies with Compounds #1, #4 and #6 (with results as listed in Tables 8, 9 and 10), fresh human whole blood and plasma samples were purchased from BioChemed Services, shipped in Styrofoam coolers maintained with frozen cold packs, and used within 48 hours of receipt. For studies with Compounds #15 and #16 (with results as listed in Tables 11 and 12), blood was drawn from volunteers and whole blood samples and isolated plasma prepared and immediately placed on ice. Whole blood and plasma samples were maintained at 4° C. and used within approximately 30 hours.
# [2] = system: Staphylococcus aureus (OC8525), a methicillin-resistant strain (MRSA); experiment: In vivo efficacy in a mouse systemic infection model; conditions: for ED50: Staphylococcus aureus, 72 h, Swiss Webster mice infected i.p. with MRSA, 3 day survival, normalized to parent content
# Description: Female Swiss Webster mice weighing between 20-25 g were infected intraperitoneally with approximately 5×10^5 colony forming units (CFU) Staphylococcus aureus (OC8525), a methicillin-resistant strain (MRSA), in 7% mucin. One hour later, the animals were given the test compound intravenously or orally in a dose volume of 0.2 mL. Each animal test group consisted of eight animals. The test compounds were prepared immediately before dosing in 5% dextrose in water (D5W) and diluted further in D5W for i.v. and p.o. administration. The mice were observed over a three day period and ED50 values were calculated from the resulting % survival curves (see Table 13, below). The measured ED50 values were normalized to the content of (E)-7-(3-(2-amino-1-fluoroethylidene)piperidin-1-yl)-1-cyclopropyl-6-fluoro-8-methoxy-4-oxo-1,4-dihydroquinoline-3-carboxylic acid. For some compounds, in vivo efficacy was determined by testing a group of eight mice at a single dose level only. In these cases, the data presented in Table 13, below are reported as percent survival at the designated dose.
# [3] = In vitro bioconversion of pro-drug to parent drug in mouse blood, plasma, liver and kidney extract; type: in vitro ADME; conditions: for Peak Area of pro-drug: 37° C. incubator; for Conversion to the parent compound (summary in words): mouse whole blood, liver/kidney extracts, plasma
# Description: Compound concentrations were normalized to parent drug content by multiplying by a ratio of the relative molecular weights. Time 0 (minute) samples were prepared by immediately diluting with an equal volume of acetonitrile, vortexing, and transferring the samples to ice. […] Representative compounds of the present invention and the parent compound were analyzed by reversed-phase HPLC using an Agilent 1100 system. […] The solvent flow rate was 1 mL/min, and the column temperature was 40° C. Compound and parent peak identification was by diode array detection, monitored at 300 nm Conversion of the compounds (prodrugs) to parent drug was estimated by peak areas (A300 nm, mAU) of the respective agents. Mouse whole blood and plasma were collected from Swiss Webster mice, and stored at 4° C. until use (within 48 hours). […] For these experiments, fresh whole mouse livers or kidneys were homogenized for approximately 30 seconds (Omni-Tip™ disposable homogenizer tip) in 1 mL sterile saline and immediately stored on ice. Crude extracts (non-centrifuged) were incubated with the test compound or parent (20 μg/mL) and processed as described above.
# [4] = Clarity of test compound solutions at […] (aqueous solubility); conditions: for solubility at 24 h: 50 mM citrate buffer, pH 4, aqueous buffer, thermodynamic from solid; for Aqueous Solubility pH~7 (visual clarity): […] active-form equivalents, pH 7 (50 mM phosphate), after 24 hours
# Description: A 50-mg/mL solution of a compound of formula (I) or a compound of formula (II) in H2O was titrated with 0.1 M NaOH until pH reached 5.7-6.1. Any solid that precipitated was filtered. The remaining solutions or phase-separated oil/H2O mixtures were freeze-dried to produce zwitterions as fluffy solids.
# The aqueous solubility of Compounds #14, #15 and #16 were determined by a modified procedure. In these cases, the samples were targeted at a pH of 4 and 7 and were measured exclusively using 100 mM phosphate buffers. For both pH's, measured samples were initially prepared at ˜3 mg/ml and ˜10 mg/ml concentrations and for samples that dissolved rapidly, additional compound was added to the solution until saturated solutions were obtained.
# [5] = Aqueous solubility, modified procedure (saturated solutions, RP-HPLC); type: physicochemical; conditions: thermodynamic from solid, 100 mM phosphate buffer
# [6] = fresh human blood (purchased), 0.0 min
# [7] = fresh human plasma (purchased), 0.0 min
# [8] = fresh human plasma (purchased), 5.0 min
# [9] = fresh human plasma (purchased), 15.0 min
# [10] = fresh human plasma (purchased), 30.0 min
# [11] = oral dose 1 h later, read-out: ED50 p.o.
# [12] = iv, i.v. dose 1 h later, read-out: ED50 i.v.
# [13] = homogenized mouse kidney, 0 min
# [14] = homogenized mouse kidney, 5 min
# [15] = homogenized mouse kidney, 30 min
# [16] = homogenized mouse liver, 30 min
SMILES,"Peak Area of pro-drug [1, 6] [mAU]","Peak Area of pro-drug [1, 7] [mAU]","Peak Area of pro-drug [1, 8] [mAU]","Peak Area of pro-drug [1, 9] [mAU]","Peak Area of pro-drug [1, 10] [mAU]",Conversion to the parent compound (summary in words) [1],"ED50 [2, 11] [mg/kg]","ED50 [2, 12] [mg/kg]","Peak Area of pro-drug ([3]; fresh mouse plasma, 0 min) [mAU]","Peak Area of pro-drug ([3]; fresh mouse plasma, 5 min) [mAU]","Peak Area of pro-drug ([3]; fresh mouse plasma, 30 min) [mAU]","Peak Area of pro-drug [3, 13] [mAU]","Peak Area of pro-drug [3, 14] [mAU]","Peak Area of pro-drug [3, 15] [mAU]","Peak Area of pro-drug ([3]; homogenized mouse liver, 0 min) [mAU]","Peak Area of pro-drug ([3]; homogenized mouse liver, 5 min) [mAU]","Peak Area of pro-drug [3, 16] [mAU]",Conversion to the parent compound (summary in words) [3],solubility at 24 h [4] [µg/mL],Aqueous Solubility pH~7 (visual clarity) [4],further results
"COc1c(N2CCC/C(=C(\F)CNC(=O)[C@@H](N)C(C)C)C2)c(F)cc2c(=O)c(C(=O)O)cn(C3CC3)c12.Cl [Compound 1, 7-{3-[2-((2S)-2-Amino-3-methyl-butyrylamino)-1-fluoro-ethylidene]-piperidin-1-yl}-1-cyclopropyl-6-fluoro-8-methoxy-4-oxo-1,4-dihydro-quinoline-3-carboxylic acid hydrochloride]",365,401,386,369,371,converted to the parent compound,9.9,1.3,298,296,286,222,152,41,235,171,51,converted to the parent compound,< 3300,No,"Peak Area of pro-drug ([1]; fresh human blood (purchased), 3.0 min): 339 mAU; Peak Area of pro-drug ([1]; fresh human blood (purchased), 5.5 min): 339 mAU; Peak Area of pro-drug ([1]; fresh human blood (purchased), 8.0 min): 328 mAU; Peak Area of pro-drug ([1]; fresh human blood (purchased), 10.5 min): 289 mAU; Peak Area of pro-drug ([1]; fresh human blood (purchased), 15.5 min): 256 mAU"
"COc1c(N2CCC/C(=C(\F)CNC(=O)[C@H](C)N)C2)c(F)cc2c(=O)c(C(=O)O)cn(C3CC3)c12.Cl [Compound 4, 7-{3-[2-((2S)-2-Amino-propionylamino)-1-fluoro-ethylidene]-piperidin-1-yl}-1-cyclopropyl-6-fluoro-8-methoxy-4-oxo-1,4-dihydro-quinoline-3-carboxylic acid hydrochloride]",401,442,383,339,268,converted to the parent compound,19.8,0.7,–,–,–,–,–,–,–,–,–,converted to the parent compound,> 3300,No,"Peak Area of pro-drug ([1]; fresh human blood (purchased), 4.0 min): 205 mAU; Peak Area of pro-drug ([1]; fresh human blood (purchased), 6.5 min): 123 mAU; Peak Area of pro-drug ([1]; fresh human blood (purchased), 9.0 min): 79 mAU; Peak Area of pro-drug ([1]; fresh human blood (purchased), 11.5 min): 84 mAU; Peak Area of pro-drug ([1]; fresh human blood (purchased), 16.5 min): 68 mAU"
"COc1c(N2CCC/C(=C(\F)CNC(=O)CN)C2)c(F)cc2c(=O)c(C(=O)O)cn(C3CC3)c12.Cl [Compound 6, 7-{3-[2-(2-Amino-acetylamino)-1-fluoro-ethylidene]-piperidin-1-yl}-1-cyclopropyl-6-fluoro-8-methoxy-4-oxo-1,4-dihydro-quinoline-3-carboxylic acid hydrochloride]",369,393,386,399,393,converted to the parent compound,> 17.6,0.6,363,329,281,219,72,11,254,143,34,converted to the parent compound,< 3300,No,"Peak Area of pro-drug ([1]; fresh human blood (purchased), 3.5 min): 290 mAU; Peak Area of pro-drug ([1]; fresh human blood (purchased), 6.0 min): 188 mAU; Peak Area of pro-drug ([1]; fresh human blood (purchased), 8.5 min): 159 mAU; Peak Area of pro-drug ([1]; fresh human blood (purchased), 11.0 min): 134 mAU; Peak Area of pro-drug ([1]; fresh human blood (purchased), 16.0 min): 95 mAU"
"COc1c(N2CCC/C(=C(\F)CNC(=O)[C@@H](N)CN(C)C)C2)c(F)cc2c(=O)c(C(=O)O)cn(C3CC3)c12.Cl.Cl [Compound 14, 7-{3-[2-((2S)-2-Amino-3-dimethylamino-propionylamino)-1-fluoro-ethylidene]-piperidin-1-yl}-1-cyclopropyl-6-fluoro-8-methoxy-4-oxo-1,4-dihydro-quinoline-3-carboxylic acid dihydrochloride]",–,–,–,–,–,–,–,–,–,–,–,–,–,–,–,–,–,–,–,–,"% Survival ([2]; i.v., at 2.0 mg/kg/day, mice): 12.5% at 2.0 mg/kg/day; solubility at 18 h ([5]; pH 4, aqueous buffer, read-out: Aqueous Solubility pH~4): 6890 µg/mL; solubility at 18 h ([5]; pH 7, aqueous buffer, read-out: Aqueous Solubility pH~7): > 3000 µg/mL"
